# From PMC10150366, “Discovery of an In Vivo Chemical Probe for BCL6 Inhibition by Optimization of Tricyclic Quinolinones” (Journal of Medicinal Chemistry, 2023)
# “And” between values parts separate entries of the source, which are not always exact repeats. Equal values may be shown once. Read-outs that look alike come from different tables or passages of the source.
# Experiments:
# [1] = target: T1, BCL6-SMRT (NCOR2) corepressor protein-protein interaction (Homo sapiens, UniProt P41182); assay: NanoBRET cellular assay (HEK293T); assay type: cell-based
# T1 construct: DNA encoding full length BCL6 and SMRT; expressed in transfected cells; host or cells: HEK293T
# Experimental: Test compounds in DMSO or DMSO alone
# concentration in 0.7% v/v DMSO final.
# (also called NCOR2) corepressor protein-protein interaction. DNA encoding full length BCL6 and SMRT
# fusion proteins BCL6-nanoLuc and SMRT-HaloTag, respectively. HEK293T cells were plated […] in T75
# At the time of assay, compounds
# dispensing (Labcyte Inc.). Frozen transfected HEK293T cells were thawed, centrifuged and freezing
# DMSO final concentration.
# After a short centrifugation the
# (1st emission filter) / 450-80 nm (2nd emission filter). The % inhibition at each test concentration was
# sigmoidal four-parameter logistic fit equation. […]
# human BCL6 BTB domain = human BCL6 BTB domain (Homo sapiens, UniProt P41182); assay: BCL6 TR-FRET assay; assay type: binding; conditions: for IC90: read-out: BCL6 TR-FRET IC90 Geometric Mean
# Experimental: 1. Supplementary experimental: protein production, purification and crystallography 1.1 BCL6 constructs used for assays and crystallography […]
# cleavage site. For the TR-FRET assay, the Trx-6His-HRV3C-BCL6 protein construct was used without cleaving the tag, as a 6His was needed to bind to the anti-6His-Terbium antibody. […]
# For both plasmid constructs described above, transformed BL21-AI E. coli cells were grown in LB media […]
# Expression was carried out at 18 °C for 18 hours. Cells were harvested by centrifugation (5500 g for 30 minutes at 4 °C) and stored at -80 °C.
# Cells were re-suspended in a buffer composed of 20 mM Tris pH 8, 250 mM NaCl, 1 mM MgCl2, 0.5 mM […]
# lysed by sonication followed by centrifugation at 21,000 g for 45 minutes at 4 °C. […]
# ResourceQ and gel filtration using a HiLoad 26/60 Superdex75 column in a buffer containing 20 mM HEPES […]
# The final protein was assessed for purity and molar mass by SDS-PAGE and high-resolution mass spectrometry, respectively.
# For the uncleaved Trx-6His-HRV3C-BCL6 protein construct to be used in TR-FRET, the protein was directly eluted from the HisTrap FF column without HRV-3C treatment, and submitted to Superdex75 gel filtration […]
# Test compounds in DMSO or DMSO alone […]
# concentration in 0.7% v/v DMSO final. […]
# [2] = Microsomal clearance, mouse liver microsomes; conditions: one value given; mouse microsomal clearance per text
# [3] = HEK-293T, Table S2, read-out: BCL6 NanoBRET IC90 individual replicates
# [4] = geometric mean of at least three replicates, read-out: NanoBRET IC50
# [5] = single replicates, Table S2, read-out: BCL6 NanoBRET IC50 individual replicates
# [6] = geometric mean of at least three replicates, read-out: BCL6 TR-FRET IC50
# [7] = supplement, read-out: BCL6 TR-FRET IC50 Geometric Mean
# [8] = HEK-293T, Table S2, several values per compound, read-out: BCL6 NanoBRET IC90 Geometric Mean
# [9] = Table S2, several values per compound, read-out: BCL6 NanoBRET IC90 Geometric Mean
# [10] = supplement, read-out: BCL6 NanoBRET IC50 Geometric Mean
# [11] = Table S1, read-out: BCL6 TR-FRET pIC50 mean (converted)
compound,measurement,setting,value
"Cn1c(=O)c2c(c3cc(Nc4nc(N5CC(F)(F)C5)ncc4Cl)ccc31)N[C@@H](C1CC1)C(F)(F)CO2 [compound 11, (S)-10-((5-Chloro-2-(3,3-difluoroazetidin-1-yl)pyrimidin-4-yl)amino)-2-cyclopropyl-3,3-difluoro-7-methyl-1,2,3,4-tetrahydro-[1,4]oxazepino[2,3-c]quinolin-6(7H)-one]",IC90,[1]; [3],0.175 µM
same,IC90,"[1]; HEK-293T, geometric mean of at least three replicates, read-out: NanoBRET IC90",0.175 µM
same,BCL6 NanoBRET pIC50 mean,[1]; Table S2,7.5086
same,IC50,[1]; [4],0.031 µM
same,IC50,[1]; [5],0.0611 µM and 0.0182 µM and 0.0268 µM
same,IC90,human BCL6 BTB domain; Table S1,0.0854 µM
same,IC50,human BCL6 BTB domain; [6],0.01 µM
same,IC50,human BCL6 BTB domain; [7],0.0103 µM
"Cn1c(=O)c2c(c3cc(Nc4nc(N5CC(C#N)C5)ncc4Cl)ccc31)N[C@@H](C1CC1)C(F)(F)CO2 [compound 12, (S)-1-(5-Chloro-4-((2-cyclopropyl-3,3-difluoro-7-methyl-6-oxo-1,2,3,4,6,7-hexahydro-[1,4]oxazepino[2,3-c]quinolin-10-yl)amino)pyrimidin-2-yl)azetidine-3-carbonitrile]",IC90,[1]; [8],0.532 µM
same,IC90,[1]; [3],0.385 µM
same,BCL6 NanoBRET pIC50 mean,[1]; Table S2,7.2623
same,IC90,[1]; [9],0.398 µM and 0.27 µM
same,IC50,[1]; [4],0.055 µM
same,IC50,[1]; [5],0.0736 µM and 0.0639 µM and 0.0347 µM
same,IC50,[1]; [10],0.0547 µM
same,BCL6 TR-FRET pIC50 mean,human BCL6 BTB domain; Table S1,8.3025
same,IC90,human BCL6 BTB domain; Table S1,0.0466 µM
same,IC50,human BCL6 BTB domain; [6],0.005 µM
"Cn1c(=O)c2c(c3cc(Nc4nc(N5CC(F)C5)ncc4Cl)ccc31)N[C@@H](C1CC1)C(F)(F)CO2 [compound 13, (S)-10-((5-Chloro-2-(3-fluoroazetidin-1-yl)pyrimidin-4-yl)amino)-2-cyclopropyl-3,3-difluoro-7-methyl-1,2,3,4-tetrahydro-[1,4]oxazepino[2,3-c]quinolin-6(7H)-one]",IC90,[1]; [3],0.444 µM
same,IC50,"[1]; Table S2, read-out: BCL6 NanoBRET pIC50 mean (converted)",0.052 µM
same,IC50,[1]; [4],0.04 µM
same,IC50,[1]; [5],0.0567 µM and 0.0284 µM and 0.0873 µM
same,IC90,human BCL6 BTB domain; Table S1,0.0502 µM
same,IC50,human BCL6 BTB domain; [11],0.0062 µM
same,IC50,human BCL6 BTB domain; [6],0.0057 µM
Cn1c(=O)c2c(c3cc(Nc4ccnc(Cl)c4C#N)ccc31)N[C@@H](C1CC1)C(F)(F)CO2 [compound 14],IC90,[1]; [3],0.124 µM
same,BCL6 NanoBRET pIC50 mean,[1]; Table S2,7.9327
same,IC50,[1]; [5],14.7 nM and 10.4 nM (2×)
same,IC50,[1]; [10],0.0117 µM
same,IC90,human BCL6 BTB domain; Table S1,0.0301 µM
same,IC50,human BCL6 BTB domain; [11],0.00395 µM
same,IC50,human BCL6 BTB domain; [6],0.0048 µM
"Cc1nccc(Nc2ccc3c(c2)c2c(c(=O)n3C)OCC(F)(F)[C@H](C3CC3)N2)c1Cl [compound 16, (S)-10-((3-chloro-2-methylpyridin-4-yl)amino)-2-cyclopropyl-3,3-difluoro-7-methyl-1,2,3,4-tetrahydro-[1,4]oxazepino[2,3-c]quinolin-6(7H)-one]",IC90,[1]; [8],0.639 µM
same,IC90,[1]; [3],0.639 µM
same,BCL6 NanoBRET pIC50 mean,[1]; Table S2,6.8907
same,IC50,[1]; [5],0.129 µM
same,IC50,[1]; [10],0.129 µM
same,BCL6 TR-FRET pIC50 mean,human BCL6 BTB domain; Table S1,7.7332
same,IC90,human BCL6 BTB domain; Table S1,0.158 µM
same,IC50,human BCL6 BTB domain; [6],0.0185 µM
"Cn1c(=O)c2c(c3cc(Nc4ccnc(Cl)c4F)ccc31)N[C@@H](C1CC1)C(F)(F)CO2 [compound 18, (S)-10-((2-chloro-3-fluoropyridin-4-yl)amino)-2-cyclopropyl-3,3-difluoro-7-methyl-1,2,3,4-tetrahydro-[1,4]oxazepino[2,3-c]quinolin-6(7H)-one]",IC90,[1]; [8],0.625 µM
same,IC90,[1]; [3],0.616 µM
same,BCL6 NanoBRET pIC50 mean,[1]; Table S2,6.9685
same,IC90,[1]; [9],0.511 µM and 0.732 µM
same,IC50,[1]; [4],0.108 µM
same,IC50,[1]; [5],0.0999 µM and 0.125 µM and 0.0995 µM
same,IC50,[1]; [10],0.107 µM
same,BCL6 TR-FRET pIC50 mean,human BCL6 BTB domain; Table S1,7.6837
same,IC90,human BCL6 BTB domain; Table S1,0.201 µM
same,IC50,human BCL6 BTB domain; [6],0.021 µM
same,IC50,human BCL6 BTB domain; [7],0.0207 µM
"(2S)-10-((2-(8-Acetyl-3,8-diazabicyclo[3.2.1]octan-3-yl)-5-chloropyrimidin-4-yl)amino)-2-cyclopropyl-3,3-difluoro-7-methyl-1,2,3,4-tetrahydro-[1,4]oxazepino[2,3-c]quinolin-6(7H)-one [compound 6]",BCL6 NanoBRET pIC50 mean,[1]; Table S2,7.57
same,IC90,[1]; [9],0.189 µM and 0.229 µM and 0.239 µM
same,IC90,"[1]; Table S2, read-out: BCL6 NanoBRET IC90 individual replicates",0.218 µM
same,IC50,[1]; [4],0.0269 µM
same,IC50,[1]; [5],0.027 µM and 0.03 µM and 0.0241 µM
same,CLint H/M/R,[2],214 μLmin^-1mg^-1
same,BCL6 TR-FRET pIC50 mean,human BCL6 BTB domain; Table S1,9.0422
same,IC90,human BCL6 BTB domain; Table S1,0.0046 µM
same,IC50,human BCL6 BTB domain; [6],0.0009 µM
